# Results reported in PubChem BioAssay AID1117345.
# Calls of active or inactive are those of the source. How the calls were made is not given here.
# System: STC-1 cells GLP-1 secretion
# Test: dose-response assay, glucagon-like peptide-1 release in STC-1 line, potency as half-maximal inhibitory concentration (AID 1117345)
row,SMILES,IC50
1,Cc1ccc([N+](=O)[O-])[c]2c1[O][Hg]2,97.2 nM
2,CCCCCCCCCCCC(=O)[O][Sn]([CH2]CCC)([CH2]CCC)[O]C(=O)CCCCCCCCCCC,> 40000 nM (inactive)
3,OCCN1CCN(CC/C=C2/c3ccccc3Sc3ccc(C(F)(F)F)cc32)CC1,> 40000 nM (inactive)
4,CC(=O)[O][Hg][c]1ccccc1,713 nM
5,CCCCCCCCCCCCCC[N+](C)(C)C,> 40000 nM (inactive)
